For 1 molecule, azadirachtin activity, Azadirachtin solubility and storage stability results are on record in US9668473B2, “Process for obtaining biopolymeric nanoparticles containing Azadirachta indica A. Juss. (neem.) oil and extracts, biopolymeric nanoparticles, and powder microparticles” (priority 2013, dated 2017).

Molecules are shown by their SMILES. Like-named read-outs stand apart in the source and are kept apart here.

The conditions of series [1]: cited from earlier work.
Series [2] is described as follows: Azadirachtin solubility and dispersion capability in aqueous phase. In kind it is physicochemical. An excerpt: This value represents an azadirachtin dispersion capability 13 times greater than its solubility. That is, it is possible to prepare a new formulation for applying Neem extracts and oil with high azadirachtin contents, whereas the surfactant content is kept low (Tween®80=0.5% m/v). It should be clear for those skilled in the art that this value represents a non-limiting example; greater dispersion capabilities are fairly possible according to the extract content used.

The format of series [3] is physicochemical. As to the method:
Reproducibility, Resistance, Recovery, and Storage Stability
Azadirachtin solutions stores at 4° C. were considered stable.

Take `C/C=C(\C)C(=O)O[C@H]1C[C@@H](OC(C)=O)[C@@]2(C(=O)OC)CO[C@H]3[C@@H](O)[C@@](C)([C@]45O[C@@]4(C)[C@H]4C[C@@H]5O[C@@H]5OC=C[C@@]54O)[C@H]4[C@]1(CO[C@]4(O)C(=O)OC)[C@@H]32` [Azadirachtin, azadirachtin]: the azadirachtin activity in series [1] (after 4 hours of sunlight exposure) is approximately 60%; in series [1] (after 15 hours of sunlight exposure) it was approximately 50%. This molecule gave an Azadirachtin solubility in series [2] of 26.0 mg 100 mL^−1. Moreover, in series [3], the storage stability entry is given as “stable”.
